Measurements published in US12037324B2, “Biarylmethyl heterocycles” (Université de Montréal, priority 2016, dated 2024).
Read-outs that look alike come from different tables or passages of the source.

Experiments:
hAT1R [1] = target: T1, hAT1R (Homo sapiens, UniProt P30556); assay: BRET Gq biosensor assay, agonist response, HEK293 cells; type: cell-based; conditions: section of the 42nd table directly before the BRET P63 section
T1 sequence (P30556 1-359): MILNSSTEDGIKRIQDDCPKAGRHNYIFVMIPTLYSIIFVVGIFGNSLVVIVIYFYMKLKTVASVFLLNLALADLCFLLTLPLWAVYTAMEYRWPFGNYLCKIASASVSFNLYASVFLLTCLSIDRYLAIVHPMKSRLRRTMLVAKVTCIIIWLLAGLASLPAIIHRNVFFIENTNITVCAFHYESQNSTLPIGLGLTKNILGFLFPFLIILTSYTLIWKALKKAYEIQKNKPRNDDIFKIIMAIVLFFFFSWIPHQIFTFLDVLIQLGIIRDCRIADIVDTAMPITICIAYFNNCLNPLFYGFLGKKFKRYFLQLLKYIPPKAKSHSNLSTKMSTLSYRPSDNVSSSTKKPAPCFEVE
Outline: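 Agonist EC50 derived from a 4-parameter fit of BRET2 ratio (GFP 515 nm/Rluc 410 nm), scaled between unstimulated control and maximal AngII response. Readings taken 5 min after compound addition at room temperature, with 2 μM coelenterazine, in HEK293 cells expressing hAT1R, Gαq-Rluc, Gβ1 and GFP-Gγ1 (transfected two days earlier).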

hAT1R [2] = target: T1, hAT1R; assay: cell-based; conditions: agonist mode; for EC50: read-out: BRET P63 EC50
AGTR1 = target: T2, AGTR1 (Homo sapiens, UniProt P30556); assay: DiscoveRx β-arrestin2 recruitment assay (enzyme complementation, Pathunter CHO-K1 AGTR1 β-arrestin cell line); type: cell-based
T2 construct: host or cells: Pathunter CHO-K1 AGTR1 β-arrestin cell line (CHO-K1)
T2 sequence (P30556 1-359): T1 sequence (P30556 1-359)
Outline: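 Chemiluminescent enzyme-complementation read-out of β-arrestin2 recruitment to AGTR1 in engineered CHO-K1 cells after 90 min compound exposure at 37° C. Values are 4-parameter logistic EC50s in agonist mode, IC50s in antagonist mode, with efficacy relative to the maximal All response.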

hAT1R [3] = target: T1, hAT1R; assay: cell-based; conditions: section of the 42nd table ending at r951, example numbering restarts after the DiscoveRx section; read-out: β-arrestin2 EC50
hAT1R [4] = target: T1, hAT1R; assay: BRET β-arrestin2 biosensor assay, higher receptor expression (hAT1R 5 ng/well), HEK293 cells; type: cell-based; conditions: for EC50: High AT1R Expression
[5] = DiscoveRx β-arrestin2 recruitment
[6] = DiscoveRx β-arrestin2 recruitment, maximal response

| EC50 (AGTR1) | SMILES | EC50 (hAT1R [1]) | BRET P63 Ymax (hAT1R [2]) | EC50 (hAT1R [2]) | EC50 (AGTR1; [5]) | DiscoveRx β-arrestin2 Ymax (%) (AGTR1; [6]) | EC50 (hAT1R [3]) | BRET β-Arrestin2 High AT1R Expression Ymax (%) (hAT1R [4]) | EC50 (hAT1R [4]) | DiscoveRx β-arrestin2 Ymax (%) (AGTR1; [5]) |
| --- | --- | --- | --- | --- | --- | --- | --- | --- | --- | --- |
| – | CCc1nc2c(C)cc(C)nc2n1Cc1ccc(-c2cc(-c3ccccc3)ccc2-c2nn[nH]n2)cc1F [Example 264, 2-ethyl-3-((3-fluoro-6′-(2H-tetrazol-5-yl)-[1,1′:3′,1″-terphenyl]-4-yl)methyl)-5,7-dimethyl-3H-imidazo[4,5-b]pyridine] | 42.8 nM | 15.7% | 7.4 nM | 19.2 nM | 52.9% | 12.9 nM | – | – | – |
| – | CCc1nc2c(C)cc(C)nc2n1Cc1ccc(-c2cc(-c3ccccc3)ccc2-c2nn[nH]n2)c(F)c1 [Example 265] | 29.2 nM | 17.9% | 7 nM | 30.1 nM | 53.4% | 18.9 nM | – | – | – |
| – | CCc1nc2c(C)cc(C)nc2n1Cc1ccc(-c2cc(-c3cccc(C)c3)ccc2-c2nn[nH]n2)cc1F [Example 266] | 26.1 nM | 19.1% | 5.7 nM | 64.3 nM | 75.8% | 5.7 nM | – | – | – |
| – | CCc1nc2c(C)cc(C)nc2n1Cc1ccc(-c2cc(-c3cccc(C)c3)ccc2-c2nn[nH]n2)c(F)c1 [Example 267] | 36.6 nM | 17.7% | 7.5 nM | 9.8 nM | 62.5% | 8.2 nM | – | – | – |
| – | CCCCC(=O)N(Cc1ccc(-c2cc(-c3cccc(C)n3)ccc2-c2nn[nH]n2)cc1)C1(C(=O)O)CCCCC1 [Example 294] | 427 nM | – | > 100000 nM | 87.3 nM | 28.9% | – | 24.7% | 150 nM | – |
| – | CCCCC(=O)N(Cc1ccc(-c2cc(-c3cccc(OC)n3)ccc2-c2nn[nH]n2)cc1)C1(C(=O)O)CCCCC1 [Example 296] | 619 nM | 6.9% | 307 nM | 128 nM | 41.8% | – | 79.9% | 68.8 nM | – |
| – | CCCCC(=O)N(Cc1ccc(-c2cc(N3CCCC(C)C3)ccc2-c2nn[nH]n2)cc1)C1(C(=O)O)CCCCC1 (centres unmarked) [Example 297, 1-(N-((5′-(3-methylpiperidin-1-yl)-2′-(2H-tetrazol-5-yl)-[1,1′-biphenyl]-4-yl)methyl)pentanamido)cyclohexanecarboxylic acid] | 621 nM | – | > 100000 nM | 142 nM | 30.5% | – | 74.5% | 327 nM | – |
| – | CCCCC(=O)N(Cc1ccc(-c2cc(-c3ccccc3)ccc2-c2nn[nH]n2)cc1)C1(C(=O)O)CCN(c2ccccc2)CC1 [Example 298, 4-(N-((6′-(2H-Tetrazol-5-yl)-[1,1′:3′,1″-terphenyl]-4-yl)methyl)pentan-amido)-1-phenylpiperidine-4-carboxylic acid] | 958 nM | – | > 100000 nM | 278 nM | 31.3% | – | 68.8% | 270 nM | – |
| – | CCOc1nc2cccc(C(=O)O)c2n1Cc1ccc(-c2cc(-c3cc(C)ccn3)ccc2-c2noc(=O)[nH]2)cc1 [Example 299, 2-ethoxy-1-((5′-(4-methylpyridin-2-yl)-2′-(5-oxo-4,5-dihydro-1,2,4-oxadiazol-3-yl)-[1,1′-biphenyl]-4-yl)methyl)-1H-benzo[d]imidazole-7-carboxylic acid] | 21.3 nM | 31.7% | 4.9 nM | 7.7 nM | 83.0% | 4.7 nM | – | – | – |
| – | CCOc1nc2cccc(C(=O)O)c2n1Cc1ccc(-c2cc(-c3cc(OC(F)F)ccn3)ccc2-c2noc(=O)[nH]2)cc1 [Example 302] | 47.3 nM | 25.2% | 10.2 nM | 10.2 nM | 61.1% | 14.9 nM | – | – | – |
| – | CCOc1nc2cccc(C(=O)O)c2n1Cc1ccc(-c2cc(-c3ccccn3)ccc2-c2noc(=O)[nH]2)cc1 [Example 303] | 109 nM | 30.4% | 49.7 nM | 42.3 nM | 58.9% | 38.2 nM | – | – | – |
| – | CCOc1nc2cccc(C(=O)O)c2n1Cc1ccc(-c2cc(-c3cc(N(C)C)ccn3)ccc2-c2noc(=O)[nH]2)cc1 [Example 305] | 82.9 nM | 24.3% | 67 nM | 25.5 nM | 69.3% | 90.3 nM | – | – | – |
| – | CCCCc1nc(Cl)c(C(=O)O)n1Cc1ccc(-c2cc(-c3cccc4[nH]ccc34)ccc2-c2nn[nH]n2)cc1 [Example 392, 1-((5′-(1H-indol-4-yl)-2′-(2H-tetrazol-5-yl)-1,1,1′-biphenyll-4-yl)methyl)-2-butyl-4-chloro-1H-imidazole-5-carboxyimc acid] | 3320 nM | – | > 100000 nM | 45.2 nM | 29.2% | – | 79.1% | 17.2 nM | – |
| – | CCCCC(=O)N(Cc1ccc(-c2cc(-c3ccccn3)ccc2-c2nn[nH]n2)cc1)[C@H](C(=O)O)C(C)C [Example 443, (S)-3-Methyl-2-(N-((5′-(pyridin-2-yl)-2′-(2H-tetrazol-5-yl)-[1,1′-biphenyl]-4-yl)methyl)pentanamido)butanoic] | 77.1 nM | 4.5% | 365 nM | 124 nM | – | – | 83.9% | 153 nM | 36.5% |
| – | CCCCC(=O)N(Cc1ccc(-c2cc(-c3cccc(C)n3)ccc2-c2nn[nH]n2)cc1)[C@H](C(=O)O)C(C)C [Example 444] | 258 nM | – | > 100000 nM | 125 nM | – | – | 46.5% | 147 nM | 36.3% |
| – | CCCCC(=O)N(Cc1ccc(-c2cc(-c3cccc(OC)n3)ccc2-c2nn[nH]n2)cc1)[C@H](C(=O)O)C(C)C [Example 446] | > 100000 nM | 4.5% | 668 nM | 179 nM | – | – | 84.3% | 144 nM | 29.8% |
| – | CCCCC(=O)N(Cc1ccc(-c2cc(N3CCC(C)CC3)ccc2-c2nn[nH]n2)cc1)[C@H](C(=O)O)C(C)C [Example 447] | 1380 nM | – | > 100000 nM | 295 nM | – | – | 63.1% | 336 nM | 35.0% |
| – | CCCCC(=O)N(Cc1ccc(-c2cc(N3CCCC(C)C3)ccc2-c2nn[nH]n2)cc1)[C@H](C(=O)O)C(C)C (some centres unmarked) [Example 448] | 856 nM | – | > 100000 nM | 161 nM | – | – | 58.5% | 599 nM | 20.8% |
| – | CCCCC(=O)N(Cc1ccc(-c2cc(Nc3ccccc3)ccc2-c2nn[nH]n2)cc1)[C@H](C(=O)O)C(C)C [Example 449] | > 100000 nM | – | > 100000 nM | 263 nM | – | – | 30.1% | 345 nM | 17.8% |
| > 100000 nM | CCCCC1=NC2(CCCC2)C(=O)N1Cc1ccc(-c2cc(Oc3cc(C)ccn3)ccc2-c2nn[nH]n2)cc1 [Example 455] | 93.8 nM | – | – | 46.8 nM | – | 182 nM | – | – | 14.4% |
